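48-hour exposure; five concentrations; linearly interpolated endpoints. TGI is the concentration that stops growth completely.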 Where a SMILES comes first, the peptide text is derived from it. [ ]: non-standard residue; d: D form. The star is where a group is joined. NMeF = CN[CH](Cc1ccccc1)C(=O)O; NMeV = CN[CH](C(=O)O)C(C)C; Boc = CC(C)(C)OC(=O)*
Experiments:
Assay in all cases: growth of human tumour cells (NCI), 48 h
UO-31 renal = test system: UO-31 renal
DMS 114 small cell lung = test system: DMS 114 small cell lung
SK-MEL-28 melanoma = test system: SK-MEL-28 melanoma
MALME-3M melanoma = test system: MALME-3M melanoma
RPMI-8226 leukemia = test system: RPMI-8226 leukemia
SK-MEL-2 melanoma = test system: SK-MEL-2 melanoma
HOP-18 NSCLC = test system: HOP-18 NSCLC
786-0 renal = test system: 786-0 renal
HCT-15 colon = test system: HCT-15 colon
A498 renal = test system: A498 renal
HL-60(TB) leukemia = test system: HL-60(TB) leukemia
HOP-92 NSCLC = test system: HOP-92 NSCLC
TK-10 renal = test system: TK-10 renal
M19-MEL melanoma = test system: M19-MEL melanoma
DMS 273 small cell lung = test system: DMS 273 small cell lung
EKVX NSCLC = test system: EKVX NSCLC
UACC-257 melanoma = test system: UACC-257 melanoma
OVCAR-4 ovarian = test system: OVCAR-4 ovarian
OVCAR-8 ovarian = test system: OVCAR-8 ovarian
NCI-H226 lung = test system: NCI-H226 lung
KM20L2 colon = test system: KM20L2 colon
A549 NSCLC = test system: A549 NSCLC
HCC-2998 colon = test system: HCC-2998 colon
MOLT-4 leukemia = test system: MOLT-4 leukemia
SF-295 CNS = test system: SF-295 CNS
UACC-62 melanoma = test system: UACC-62 melanoma
SK-MEL-5 melanoma = test system: SK-MEL-5 melanoma
U251 CNS = test system: U251 CNS
DLD-1 colon = test system: DLD-1 colon
SF-539 CNS = test system: SF-539 CNS
CAKI-1 renal = test system: CAKI-1 renal
SK-OV-3 ovarian = test system: SK-OV-3 ovarian
IGROV1 ovarian = test system: IGROV1 ovarian
SN12C renal = test system: SN12C renal
OVCAR-3 ovarian = test system: OVCAR-3 ovarian
KM12 colon = test system: KM12 colon
OVCAR-5 ovarian = test system: OVCAR-5 ovarian
SW-620 colon = test system: SW-620 colon
LXFL 529 NSCLC = test system: LXFL 529 NSCLC
HOP-62 NSCLC = test system: HOP-62 NSCLC
HT29 colon = test system: HT29 colon
NCI-H522 lung = test system: NCI-H522 lung
CCRF-CEM leukemia = test system: CCRF-CEM leukemia
COLO 205 colon = test system: COLO 205 colon
SNB-19 CNS = test system: SNB-19 CNS
SNB-75 CNS = test system: SNB-75 CNS
NCI-H23 lung = test system: NCI-H23 lung
M14 melanoma = test system: M14 melanoma
SNB-78 CNS = test system: SNB-78 CNS
NCI-H460 lung = test system: NCI-H460 lung
K-562 leukemia = test system: K-562 leukemia
ACHN renal = test system: ACHN renal
LOX IMVI melanoma = test system: LOX IMVI melanoma
SF-268 CNS = test system: SF-268 CNS
RXF 393 renal = test system: RXF 393 renal
HCT-116 colon = test system: HCT-116 colon
XF 498 CNS = test system: XF 498 CNS
SR leukemia = test system: SR leukemia

`CC12CCC3(C1)[C@H](CC2=O)C[C@@H](OC(=O)c1ccccc1)C1C(C)(CO)CCC[C@@]13C` (stereo partly specified) gave a TGI (UO-31 renal) of 61.7 µM, a TGI (DMS 114 small cell lung) of 19.5 µM and a TGI (SK-MEL-28 melanoma) of over 100 µM. For the same compound, the TGI (MALME-3M melanoma) was over 100 µM, the TGI (RPMI-8226 leukemia) was 12 µM and the TGI (SK-MEL-2 melanoma) was over 90.8 µM. It also gave a TGI (HOP-18 NSCLC) of over 100 µM, a TGI (786-0 renal) of over 100 µM and a TGI (HCT-15 colon) of over 100 µM. For the same compound, the TGI (A498 renal) was over 100 µM, the TGI (HL-60(TB) leukemia) was 8.38 µM and the TGI (HOP-92 NSCLC) was 58.3 µM. It also gave a TGI (TK-10 renal) of over 100 µM, a TGI (M19-MEL melanoma) of over 100 µM and a TGI (DMS 273 small cell lung) of 13.3 µM. It also gave a TGI (EKVX NSCLC) of over 100 µM, a TGI (UACC-257 melanoma) of 23.8 µM and a TGI (OVCAR-4 ovarian) of over 72.1 µM. The TGI (OVCAR-8 ovarian) was over 100 µM, the TGI (NCI-H226 lung) was 65.9 µM and the TGI (KM20L2 colon) was over 100 µM. It also gave a TGI (A549 NSCLC) of 97 µM, a TGI (HCC-2998 colon) of over 100 µM and a TGI (MOLT-4 leukemia) of 19.7 µM. The TGI (SF-295 CNS) was over 38.9 µM, the TGI (UACC-62 melanoma) was over 89 µM and the TGI (SK-MEL-5 melanoma) was 1.71 µM. For the same compound, the TGI (U251 CNS) was over 100 µM, the TGI (DLD-1 colon) was over 100 µM and the TGI (SF-539 CNS) was over 100 µM. The TGI (CAKI-1 renal) was over 27.2 µM, the TGI (SK-OV-3 ovarian) was over 89.1 µM and the TGI (IGROV1 ovarian) was over 100 µM. For the same compound, the TGI (SN12C renal) was over 100 µM, the TGI (OVCAR-3 ovarian) was over 52.3 µM and the TGI (KM12 colon) was over 100 µM. For the same compound, the TGI (OVCAR-5 ovarian) was 95.7 µM, the TGI (SW-620 colon) was over 100 µM and the TGI (LXFL 529 NSCLC) was over 100 µM. The TGI (HOP-62 NSCLC) was over 100 µM, the TGI (HT29 colon) was over 100 µM and the TGI (NCI-H522 lung) was 17.9 µM. The TGI (CCRF-CEM leukemia) was over 54.1 µM, the TGI (COLO 205 colon) was 27.1 µM and the TGI (SNB-19 CNS) was over 100 µM. The TGI (SNB-75 CNS) was over 100 µM, the TGI (NCI-H23 lung) was over 100 µM and the TGI (M14 melanoma) was over 100 µM. The TGI (SNB-78 CNS) was over 100 µM, the TGI (NCI-H460 lung) was over 45.8 µM and the TGI (K-562 leukemia) was over 100 µM. For the same compound, the TGI (ACHN renal) was over 100 µM, the TGI (LOX IMVI melanoma) was over 100 µM and the TGI (SF-268 CNS) was over 100 µM. It also gave a TGI (RXF 393 renal) of 47.6 µM and a TGI (HCT-116 colon) of over 100 µM.

In the case of `O=c1nc2n(c3nsnc13)CCO2`, the TGI (UO-31 renal) is reported as over 100 µM, the TGI (DMS 114 small cell lung) is reported as over 100 µM and the TGI (SK-MEL-28 melanoma) is reported as over 100 µM. For the same compound, the TGI (MALME-3M melanoma) was over 100 µM, the TGI (RPMI-8226 leukemia) was over 100 µM and the TGI (SK-MEL-2 melanoma) was over 100 µM. The TGI (786-0 renal) was over 100 µM, the TGI (HCT-15 colon) was over 100 µM and the TGI (HL-60(TB) leukemia) was over 100 µM. It also gave a TGI (HOP-92 NSCLC) of over 100 µM, a TGI (TK-10 renal) of over 100 µM and a TGI (M19-MEL melanoma) of over 100 µM. It also gave a TGI (DMS 273 small cell lung) of over 100 µM, a TGI (EKVX NSCLC) of over 100 µM and a TGI (UACC-257 melanoma) of over 100 µM. For the same compound, the TGI (OVCAR-8 ovarian) was over 100 µM, the TGI (NCI-H226 lung) was over 100 µM and the TGI (KM20L2 colon) was over 100 µM. For the same compound, the TGI (A549 NSCLC) was over 100 µM, the TGI (HCC-2998 colon) was over 100 µM and the TGI (MOLT-4 leukemia) was over 100 µM. For the same compound, the TGI (UACC-62 melanoma) was over 100 µM, the TGI (SK-MEL-5 melanoma) was over 100 µM and the TGI (U251 CNS) was over 100 µM. The TGI (DLD-1 colon) was over 100 µM, the TGI (SF-539 CNS) was over 100 µM and the TGI (CAKI-1 renal) was over 100 µM. For the same compound, the TGI (SK-OV-3 ovarian) was over 100 µM, the TGI (IGROV1 ovarian) was over 100 µM and the TGI (SN12C renal) was over 100 µM. For the same compound, the TGI (OVCAR-3 ovarian) was over 100 µM, the TGI (KM12 colon) was over 100 µM and the TGI (OVCAR-5 ovarian) was over 100 µM. For the same compound, the TGI (SW-620 colon) was over 100 µM, the TGI (LXFL 529 NSCLC) was over 100 µM and the TGI (HOP-62 NSCLC) was over 100 µM. The TGI (HT29 colon) was over 100 µM, the TGI (NCI-H522 lung) was over 100 µM and the TGI (CCRF-CEM leukemia) was over 100 µM. The TGI (COLO 205 colon) was over 100 µM, the TGI (SNB-19 CNS) was over 100 µM and the TGI (SNB-75 CNS) was over 100 µM. The TGI (NCI-H23 lung) was over 100 µM, the TGI (XF 498 CNS) was over 100 µM and the TGI (M14 melanoma) was over 100 µM. It also gave a TGI (NCI-H460 lung) of over 100 µM, a TGI (K-562 leukemia) of over 100 µM and a TGI (ACHN renal) of over 100 µM. For the same compound, the TGI (LOX IMVI melanoma) was over 100 µM, the TGI (SF-268 CNS) was over 100 µM and the TGI (RXF 393 renal) was over 100 µM. It also gave a TGI (HCT-116 colon) of over 100 µM and a TGI (SR leukemia) of over 100 µM.

`CC(C)C(NC(=O)OC(C)(C)C)C(=O)N(C)C(Cc1ccccc1)C(=O)N(C)C(C(=O)N(C)C(C(=O)O)C(C)C)C(C)C` (stereo unspecified) (Boc-V[NMeF][NMeV][NMeV]-OH; configuration not given here) gave a TGI (UO-31 renal) of over 100 µM, a TGI (DMS 114 small cell lung) of over 100 µM and a TGI (SK-MEL-28 melanoma) of over 100 µM. For the same compound, the TGI (MALME-3M melanoma) was over 100 µM, the TGI (RPMI-8226 leukemia) was over 100 µM and the TGI (786-0 renal) was over 100 µM. The TGI (HCT-15 colon) was over 100 µM, the TGI (HL-60(TB) leukemia) was over 100 µM and the TGI (TK-10 renal) was over 100 µM. The TGI (M19-MEL melanoma) was over 100 µM, the TGI (DMS 273 small cell lung) was over 100 µM and the TGI (EKVX NSCLC) was over 100 µM. For the same compound, the TGI (UACC-257 melanoma) was over 100 µM, the TGI (OVCAR-8 ovarian) was over 100 µM and the TGI (NCI-H226 lung) was over 100 µM. It also gave a TGI (KM20L2 colon) of over 100 µM, a TGI (A549 NSCLC) of over 100 µM and a TGI (HCC-2998 colon) of over 100 µM. For the same compound, the TGI (MOLT-4 leukemia) was over 100 µM, the TGI (SF-295 CNS) was over 100 µM and the TGI (UACC-62 melanoma) was over 100 µM. For the same compound, the TGI (SK-MEL-5 melanoma) was over 100 µM, the TGI (U251 CNS) was over 100 µM and the TGI (SF-539 CNS) was over 100 µM. For the same compound, the TGI (IGROV1 ovarian) was over 100 µM, the TGI (SN12C renal) was over 100 µM and the TGI (OVCAR-3 ovarian) was over 100 µM. The TGI (KM12 colon) was over 100 µM, the TGI (SW-620 colon) was over 100 µM and the TGI (LXFL 529 NSCLC) was over 100 µM. It also gave a TGI (HOP-62 NSCLC) of over 100 µM, a TGI (HT29 colon) of over 100 µM and a TGI (NCI-H522 lung) of over 100 µM. The TGI (CCRF-CEM leukemia) was over 100 µM, the TGI (COLO 205 colon) was over 100 µM and the TGI (SNB-19 CNS) was over 100 µM. The TGI (NCI-H23 lung) was over 100 µM, the TGI (XF 498 CNS) was over 100 µM and the TGI (M14 melanoma) was over 100 µM. The TGI (NCI-H460 lung) was over 100 µM, the TGI (K-562 leukemia) was over 100 µM and the TGI (ACHN renal) was over 100 µM. The TGI (LOX IMVI melanoma) was over 100 µM, the TGI (SF-268 CNS) was over 100 µM and the TGI (RXF 393 renal) was over 100 µM. The TGI (HCT-116 colon) was over 100 µM and the TGI (SR leukemia) was over 100 µM.

— PubChem BioAssay (NCI)
